Experimental data published in patent US6737058B2, “Methods for inhibiting endothelial cell and fibrinogen mediated inflammation using fibrinogen specific antibodies” (The Scripps Research Institute, priority 1992, dated 2004).

Test system: HUVEC
Assay: Fibrinogen-mediated adhesion of 51Cr-labelled THP-1 cells to HUVEC
Format: cell-based, human
Description: For these assays, HUVEC were plated in the medium described in Example 2A at a density of approximately 1-5×10^4 cells/well into flat-bottom microtiter wells of a 96 well tissue-culture treated plate. The cells were then washed in serum-free RPMI 1640 and further maintained with ^51-Chromium-labelled (^51Cr) THP-1 cell suspensions previously exposed to different concentrations of unlabelled fibrinogen or left untreated. To label THP-1 cells, serum-free suspensions of the cells at a concentration of 1×10^7 cells/ml were labelled with 0.5 mCi ^51Cr (Na2CrO4 having a specific activity of 487.4 mCi/mg, NEN Du Pont de Nemours) for 2 hours at 37° C. with incorporation of an average of 12 to 20 cpm/THP-1 cell. The labelled cells were then washed twice at room temperature with serum-free RPMI 1640 and resuspended in the same medium at a concentration of 5 ×10^5 cells/ml. The labelled cells were used in the assays within 2 hours from the labelling procedure. For the assays, the cells were pre-stimulated with 1 μM N-FMLP in the presence of 1 mM CaCl2 and […] PPack. The resultant N-FMLP-stimulated THP-1 cell suspensions were then separately admixed with the following: 1) Medium without any admixed fibrinogen as a control; 2) Fibrinogen at 1.2 mg/ml and at 2.5 mg/ml concentrations; and 3) Normal human plasma (NHP) diluted 1:2 and 1:50. Purified fibrinogen was prepared as described in Example 1. Fibrinogen was present in undiluted normal human plasma at the concentration of approximately 1-3 mg/ml. The resultant admixtures were maintained for 20 minutes at 22° C. to allow for the binding of fibrinogen, either purified or present in NHP, to the Mac-1 receptor on the surface of the THP-1 cells.
The resultant fibrinogen-bound THP-1 cells were then admixed to the washed immobilized HUVEC described above to allow for the binding of a non-Mac-1 receptor binding site on fibrinogen to the RGD-independent fibrinogen receptor on the surface of HUVEC, thereby resulting in the binding of THP-1 cells to HUVEC via a fibrinogen bridge. The admixtures were maintained at 37° C. to allow for adhesion. At selected time intervals between 1 to 60 minutes, the HUVEC monolayers were gently washed five times with serum-free RPMI 1640 to remove nonadherent or loosely adherent THP-1 cells to which fibrinogen was initially immobilized. The adherent cells were then solubilized in 10% SDS and the cell lysate was quantitated in a beta scintillation counter. Spontaneous ^51Cr release from THP-1 cells was always less than 2% during the adhesion assay. The number of specifically attached THP-1 cells was determined by dividing the cpm harvested by the cpm/cell.
To determine the effects that temperature has on the ability of fibrinogen to mediate the binding of ^51Cr-labelled THP-1 cells to monolayers of HUVEC, cell adhesion assays as described in Example 3B1) were performed at 22° C. and at 37° C. over the course of one hour. The assays were performed in an identical manner as described above with the exception that 500 μg/ml of fibrinogen was used instead of […]. The maximum binding of THP-1 cells to HUVEC at 22° C. was 7500 cells after 40 minutes. At 60 minutes, the binding decreased to 5000 cells. The data is significant in comparison to the approximately 2000 THP-1 cells attached in the absence of fibrinogen. However, at 37° C., approximately 20,000 THP-1 cells attached to HUVEC after 40 minutes against a background binding of approximately 5000 cells in the absence of fibrinogen. The binding of ^51Cr-labelled THP-1 cells to HUVEC, thus, is maximized at the physiologic temperature of 37° C. with physiologic concentrations of fibrinogen.

For “fibrinogen: fibrinogen isolated from fresh plasma by cold ethanol fractionation, fibronectin-free”, the “THP-1 cells bound to HUVEC, maximum” value (500 μg/ml fibrinogen, 22° C., 40 minutes) was 7500 cells, the “THP-1 cells bound to HUVEC” value (500 μg/ml fibrinogen, 22° C., 60 minutes) was 5000 cells and the “THP-1 cells attached to HUVEC” value (500 μg/ml fibrinogen, 37° C., 40 minutes) was “approximately 20,000 cells”. For the same substance, the “THP-1 cells attached to HUVEC (parallel control), maximal” value (500 μg/ml fibrinogen, 60 minutes, non-saturable) was “approximately 25,000 cells”, the “THP-1 cells attached to HUVEC, maximum” value (1.2 mg/ml fibrinogen, 37° C., 60 minute time course) was 10,000 cells and the “THP-1 cells attached to HUVEC” value (2.5 mg/ml fibrinogen, 60 minutes, not saturated) was “approximately 18,000 cells”.
